Tested on: 435261-313-R-J1-PDC complex spheroid viability
Experiment: Anticancer human tumor 435261-313-R-J1-PDC patient-derived colon adenocarcinoma cell line growth inhibition [GQUAD]
Details: for IC50: curve of first compound; for viability, T/C: stronger effect = lower value
In short: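 Multi-cell-type spheroids of tumor cells with HUVEC and mesenchymal stem cells, treated with drug combinations. Concentrations descend in half-log steps from near clinical Cmax, or from 10 microM where Cmax is unknown; viability read-out.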

[1] = second compound 0.0316 µM, first compound 0.0316 µM
[2] = second compound 0.0316 µM, first compound 0.1 µM
[3] = second compound 0.0316 µM, first compound 0.316 µM
[4] = second compound 0.0316 µM, first compound 1 µM
[5] = second compound 0.0316 µM, first compound 3.16 µM
[6] = second compound 0.0316 µM, first compound 10 µM
[7] = second compound 0.1 µM, first compound 0.0316 µM
[8] = second compound 0.1 µM, first compound 0.1 µM
[9] = second compound 0.1 µM, first compound 0.316 µM
[10] = second compound 0.1 µM, first compound 1 µM
[11] = second compound 0.1 µM, first compound 3.16 µM
[12] = second compound 0.1 µM, first compound 10 µM
[13] = second compound 0.316 µM, first compound 0.0316 µM
[14] = second compound 0.316 µM, first compound 0.1 µM
[15] = second compound 0.316 µM, first compound 0.316 µM
[16] = second compound 0.316 µM, first compound 1 µM
[17] = second compound 0.316 µM, first compound 3.16 µM
[18] = second compound 0.316 µM, first compound 10 µM
[19] = second compound 1 µM, first compound 0.0316 µM
[20] = second compound 1 µM, first compound 0.1 µM
[21] = second compound 1 µM, first compound 0.316 µM
[22] = second compound 1 µM, first compound 1 µM
[23] = second compound 1 µM, first compound 3.16 µM
[24] = second compound 1 µM, first compound 10 µM
[25] = second compound 3.16 µM, first compound 0.0316 µM
[26] = second compound 3.16 µM, first compound 0.1 µM
[27] = second compound 3.16 µM, first compound 0.316 µM
[28] = second compound 3.16 µM, first compound 1 µM
[29] = second compound 3.16 µM, first compound 3.16 µM
[30] = second compound 3.16 µM, first compound 10 µM
[31] = second compound 10 µM, first compound 0.0316 µM
[32] = second compound 10 µM, first compound 0.1 µM
[33] = second compound 10 µM, first compound 0.316 µM
[34] = second compound 10 µM, first compound 1 µM
[35] = second compound 10 µM, first compound 3.16 µM
[36] = second compound 10 µM, first compound 10 µM
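Note: spheroids exposed to the agents for seven days before readout.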
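Throughout, for viability, T/C: percent of vehicle control viability with DMSO wells as 100%.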

Compound: C=CCn1c(=O)c2cnc(Nc3ccc(N4CCN(C)CC4)cc3)nc2n1-c1cccc(C(C)(C)O)n1 + CN(C)c1ccc(Nc2c3ccc(NC(=O)CCN4CCCC4)cc3nc3cc(NC(=O)CCN4CCCC4)ccc23)cc1
- IC50 (second compound 0.0316 µM): > 10 µM
- IC50 (second compound 0.1 µM): > 10 µM
- IC50 (second compound 0.316 µM): 7.58 µM
- IC50 (second compound 1 µM): > 10 µM
- IC50 (second compound 3.16 µM): > 10 µM
- IC50 (second compound 10 µM): 0.353 µM
- viability, T/C [1]: 128%
- viability, T/C [2]: 145%
- viability, T/C [3]: 84.1%
- viability, T/C [4]: 103%
- viability, T/C [5]: 81.8%
- viability, T/C [6]: 65.2%
- viability, T/C [7]: 96.4%
- viability, T/C [8]: 89.1%
- viability, T/C [9]: 87.9%
- viability, T/C [10]: 69.7%
- viability, T/C [11]: 91.7%
- viability, T/C [12]: 73%
- viability, T/C [13]: 92.7%
- viability, T/C [14]: 81.5%
- viability, T/C [15]: 86.6%
- viability, T/C [16]: 78.1%
- viability, T/C [17]: 64%
- viability, T/C [18]: 45.5%
- viability, T/C [19]: 80.8%
- viability, T/C [20]: 98.7%
- viability, T/C [21]: 66.6%
- viability, T/C [22]: 90.4%
- viability, T/C [23]: 75.8%
- viability, T/C [24]: 54.6%
- viability, T/C [25]: 50.9%
- viability, T/C [26]: 48.2%
- viability, T/C [27]: 63.4%
- viability, T/C [28]: 70.1%
- viability, T/C [29]: 57.8%
- viability, T/C [30]: 34%
- viability, T/C [31]: 32.7%
- viability, T/C [32]: 90.5%
- viability, T/C [33]: 44.8%
- viability, T/C [34]: 31.8%
- viability, T/C [35]: 23.9%
- viability, T/C [36]: 9.35%

Compound: CCCS(=O)(=O)Nc1ccc(F)c(C(=O)c2c[nH]c3ncc(-c4ccc(Cl)cc4)cc23)c1F + CN(C)c1ccc(Nc2c3ccc(NC(=O)CCN4CCCC4)cc3nc3cc(NC(=O)CCN4CCCC4)ccc23)cc1
- IC50 (second compound 0.0316 µM): 5.69 µM
- IC50 (second compound 0.1 µM): 5.64 µM
- IC50 (second compound 0.316 µM): 5.35 µM
- IC50 (second compound 1 µM): 5.62 µM
- IC50 (second compound 3.16 µM): 3.77 µM
- IC50 (second compound 10 µM): < 0.0316 µM
- viability, T/C [1]: 123%
- viability, T/C [2]: 110%
- viability, T/C [3]: 143%
- viability, T/C [4]: 123%
- viability, T/C [5]: 85.6%
- viability, T/C [6]: 15.8%
- viability, T/C [7]: 84.3%
- viability, T/C [8]: 110%
- viability, T/C [9]: 120%
- viability, T/C [10]: 92.3%
- viability, T/C [11]: 81.6%
- viability, T/C [12]: 19.6%
- viability, T/C [13]: 124%
- viability, T/C [14]: 94.6%
- viability, T/C [15]: 92.1%
- viability, T/C [16]: 128%
- viability, T/C [17]: 76.1%
- viability, T/C [18]: 19.1%
- viability, T/C [19]: 77.3%
- viability, T/C [20]: 90.7%
- viability, T/C [21]: 105%
- viability, T/C [22]: 92.5%
- viability, T/C [23]: 77.7%
- viability, T/C [24]: 22.1%
- viability, T/C [25]: 82%
- viability, T/C [26]: 53.6%
- viability, T/C [27]: 74.7%
- viability, T/C [28]: 112%
- viability, T/C [29]: 57.1%
- viability, T/C [30]: 10.5%
- viability, T/C [31]: 45.5%
- viability, T/C [32]: 54.3%
- viability, T/C [33]: 33.9%
- viability, T/C [34]: 34%
- viability, T/C [35]: 33.8%
- viability, T/C [36]: 7.35%

Compound: COc1ncnc(C2CC2)c1-c1ncc2cnn(Cc3ccc(-c4nc(C(F)(F)F)cn4C(C)C)cc3)c2n1 + CN(C)c1ccc(Nc2c3ccc(NC(=O)CCN4CCCC4)cc3nc3cc(NC(=O)CCN4CCCC4)ccc23)cc1
- IC50 (second compound 0.0316 µM): > 10 µM
- IC50 (second compound 0.1 µM): > 10 µM
- IC50 (second compound 0.316 µM): > 10 µM
- IC50 (second compound 1 µM): > 10 µM
- IC50 (second compound 3.16 µM): 3.14 µM
- IC50 (second compound 10 µM): < 0.0316 µM
- viability, T/C [1]: 101%
- viability, T/C [2]: 94.3%
- viability, T/C [3]: 90%
- viability, T/C [4]: 84.2%
- viability, T/C [5]: 85.9%
- viability, T/C [6]: 75.1%
- viability, T/C [7]: 103%
- viability, T/C [8]: 89.6%
- viability, T/C [9]: 113%
- viability, T/C [10]: 94%
- viability, T/C [11]: 111%
- viability, T/C [12]: 91.8%
- viability, T/C [13]: 90.7%
- viability, T/C [14]: 94%
- viability, T/C [15]: 80.9%
- viability, T/C [16]: 64%
- viability, T/C [17]: 75.4%
- viability, T/C [18]: 80.9%
- viability, T/C [19]: 82.6%
- viability, T/C [20]: 70.8%
- viability, T/C [21]: 76.4%
- viability, T/C [22]: 69.8%
- viability, T/C [23]: 78.6%
- viability, T/C [24]: 77.6%
- viability, T/C [25]: 50.5%
- viability, T/C [26]: 74.3%
- viability, T/C [27]: 69%
- viability, T/C [28]: 41.2%
- viability, T/C [29]: 56.9%
- viability, T/C [30]: 30.2%
- viability, T/C [31]: 31.4%
- viability, T/C [32]: 33.6%
- viability, T/C [33]: 28.8%
- viability, T/C [34]: 27.9%
- viability, T/C [35]: 32.9%
- viability, T/C [36]: 10.7%

From PubChem BioAssay AID2060494 (Molecular Pharmacology Branch, DTP, NCI, 2025)
